Measured values published in article PMC9266353, “Development of Novel Ecto-Nucleotide Pyrophosphatase/Phosphodiesterase 1 (ENPP1) Inhibitors for Tumor Immunotherapy” (International Journal of Molecular Sciences, 2022).
Where “and” joins values, the source holds several entries; their conditions need not be identical. Equal values may be shown once. Entries after “also recorded” stand apart in the source; their conditions may differ. Read-outs that look alike come from different tables or passages of the source.

How the values were obtained:
[1] = biological target: T1, ENPP1 in the MDA-MB-231 cell line (Homo sapiens, UniProt P22413); assay: Cellular ENPP1 enzymatic inhibition assay in MDA-MB-231 cells (pNP-TMP); assay type: cell-based; details: 4 h incubation, 200 μM pNP-TMP; three independent cell assays; read-out: IC50 against ENPP1 in MDA-MB-231 cell line
T1 construct: MDA-MB-231 cells highly expressed ENPP1; endogenous in cells; host or cells: MDA-MB-231
T1 sequence (P22413 1-925): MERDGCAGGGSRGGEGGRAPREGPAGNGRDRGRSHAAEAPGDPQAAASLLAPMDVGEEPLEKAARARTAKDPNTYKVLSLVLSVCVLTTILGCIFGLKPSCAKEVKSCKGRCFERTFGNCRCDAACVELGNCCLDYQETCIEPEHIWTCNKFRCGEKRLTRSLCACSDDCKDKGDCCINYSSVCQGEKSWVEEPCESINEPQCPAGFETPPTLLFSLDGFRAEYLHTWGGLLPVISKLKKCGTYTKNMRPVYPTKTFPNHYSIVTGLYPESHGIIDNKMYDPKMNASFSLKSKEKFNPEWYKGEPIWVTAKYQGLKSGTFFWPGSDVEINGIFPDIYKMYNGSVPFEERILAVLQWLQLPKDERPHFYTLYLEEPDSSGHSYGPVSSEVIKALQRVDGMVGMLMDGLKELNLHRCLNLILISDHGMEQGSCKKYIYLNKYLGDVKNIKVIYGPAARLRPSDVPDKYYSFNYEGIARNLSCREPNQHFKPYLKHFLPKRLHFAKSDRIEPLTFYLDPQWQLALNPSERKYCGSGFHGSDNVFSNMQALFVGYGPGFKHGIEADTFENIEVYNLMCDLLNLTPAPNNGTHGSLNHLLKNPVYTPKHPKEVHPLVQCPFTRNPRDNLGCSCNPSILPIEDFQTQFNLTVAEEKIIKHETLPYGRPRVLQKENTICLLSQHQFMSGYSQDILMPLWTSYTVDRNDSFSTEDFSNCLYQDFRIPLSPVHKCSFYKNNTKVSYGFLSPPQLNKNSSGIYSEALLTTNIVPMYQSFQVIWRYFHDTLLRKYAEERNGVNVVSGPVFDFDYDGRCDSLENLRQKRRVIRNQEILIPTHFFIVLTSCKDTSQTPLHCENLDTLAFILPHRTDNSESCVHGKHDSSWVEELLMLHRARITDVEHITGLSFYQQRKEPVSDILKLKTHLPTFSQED
Experimental: MDA-MB-231 (1.0 × 10^4 cells/well) were grown on 96-well microplates (IWAKI) overnight in the culture medium (100 μL/well) in a humidified incubator containing 5% CO2 in air at 37 °C for 24 h. The plates were washed with D-Hanks (100 μL) twice, and fresh D-Hanks (80 μL) was added. 5% DMSO or test compound (10 μL) was added to each well, and eventually pNP-TMP (2 mM, 10 μL, final 200 μM) was added. After 4 h incubation at 37 °C, the amounts of released p-nitrophenolate were measured at 405 nm. The IC50 values of test compounds were calculated by plotting three independent experiments using the program Prism 5.0 [38].

human soluble ENPP1 = biological target: T2, human soluble ENPP1 (Homo sapiens, UniProt P22413); assay: Enzyme-based ENPP1 inhibitory assay (pNP-TMP substrate, 405 nm); assay type: biochemical; details: for inhibition at 10 µM: pH 9, 10 μM compound, 200 μM pNP-TMP, pH 9.0, 37 °C; for IC50: three independent enzymatic assays, read-out: IC50 against ENPP1 (enzymatic assay)
T2 construct: addition of 20 ng of human soluble ENPP1; His; made in house; host or cells: 293-F cells (protein harvested from the medium)
T2 sequence (P22413 103-925 limits assumed): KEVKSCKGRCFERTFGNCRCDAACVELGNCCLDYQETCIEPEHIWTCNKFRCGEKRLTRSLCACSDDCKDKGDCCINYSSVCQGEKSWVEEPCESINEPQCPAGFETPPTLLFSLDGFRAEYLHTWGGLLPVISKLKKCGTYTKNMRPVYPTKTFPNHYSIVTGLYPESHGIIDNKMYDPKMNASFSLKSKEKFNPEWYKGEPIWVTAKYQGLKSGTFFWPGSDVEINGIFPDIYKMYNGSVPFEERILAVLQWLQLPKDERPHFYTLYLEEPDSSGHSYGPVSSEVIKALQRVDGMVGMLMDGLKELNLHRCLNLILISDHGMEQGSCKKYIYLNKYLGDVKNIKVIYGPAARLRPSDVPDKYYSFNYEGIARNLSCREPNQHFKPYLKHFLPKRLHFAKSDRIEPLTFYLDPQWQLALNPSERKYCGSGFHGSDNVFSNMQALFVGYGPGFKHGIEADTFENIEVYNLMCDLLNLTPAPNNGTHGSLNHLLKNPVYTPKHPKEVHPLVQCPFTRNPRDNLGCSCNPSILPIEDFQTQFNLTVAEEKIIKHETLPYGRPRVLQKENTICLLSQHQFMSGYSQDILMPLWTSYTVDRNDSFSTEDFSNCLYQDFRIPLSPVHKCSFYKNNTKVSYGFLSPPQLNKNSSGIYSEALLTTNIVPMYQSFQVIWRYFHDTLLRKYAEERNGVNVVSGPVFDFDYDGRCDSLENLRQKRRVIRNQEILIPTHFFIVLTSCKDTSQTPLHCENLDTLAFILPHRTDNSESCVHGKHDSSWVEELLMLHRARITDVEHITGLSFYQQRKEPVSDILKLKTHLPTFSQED
Experimental: In total, 1 mg hENPP1-HIS DNA using polyethylenimine at a DNA:PEI ratio of 1:3 was transfected into 1 L of 293-F cells in 293 freestyle medium. The medium was harvested after five days and filter-sterilized. […] Approximately 1 mg of purified protein was obtained from the 1-liter culture. The quality of the protein purification was validated by SDS-PAGE analysis (see Figure S1).
The initial screenings were carried out at 37 °C in a total volume of 0.1 mL of the following incubation mixture: 1 mM CaCl2, 200 μM ZnCl2, 50 mM Tris, pH 9.0, and 10 μM of each test compound. The enzyme reactions began with the addition of 20 ng of human soluble ENPP1, then incubated at 37 °C for 10 min and initiated by the addition of 200 μM pNP-TMP. The production of p-nitrophenol was measured after 30 min reaction at 405 nm. […] For the blank samples, the enzyme was added at the end of the reaction and read immediately. The IC50 values of test compounds were calculated by plotting three independent experiments using the program Prism 5.0. Incubation and operation conditions remained the same as those described above.

LO2 cell line = assay: Cell viability assay (CCK8), LO2; assay type: cell-based
Experimental: (§1) Next, the culture was replaced by fresh DMEM medium (200 μL) and the compound (10 μL) was added. After forty-eight hours, the medium was replaced by PBS (180 μL) mixture with CCK8 solution (20 μL) in each well. Cell viability was evaluated by testing the OD450 nm. The data were processed by GraphPad Prism 7.0 [45, 46].

4T1 cell line = assay: Cell proliferation assay (CCK8), 4T1; assay type: cell-based; details: CCK8, 48 h, read-out: IC50 against 4T1 cell line
Experimental: as §1, with “In total, 1 × 10^4 cells (4T1, LO2 and 293T) were plated in 96-well flat-bottom plates in a final volume of 200 μL DMEM supplemented with 10% FBS and cultured for 24 h. Next,” for “Next,”

IFN-β in serum = assay: IFN-β in mouse serum by ELISA after i.v. administration; assay type: in vivo, BALB/c nude mice; details: blood after 0.5 h
Experimental: The animal studies were conducted with the approval of the Animal Care and Use Committee at Fudan University. BALB/c nude mice (6−8 weeks) were randomized into three groups (n = 3, with a total tumor number of 9). Free cGAMP (at dose of 5 mg/kg) and cGAMP-compound 4e (at doses of 5 mg/kg cGAMP and 0.5 mg/kg compound 4e), respectively, were injected intravenously (i.v.) into mice via tail vein. After i.v. administration, mouse blood samples were collected from ophthalmic vein after 0.5 h and centrifuged at 500× g for 20 min. The concentration of IFN-β in the serum was determined by mouse ELISA kits, according to the instruction manual.

293T cell line = assay: Cell viability assay (CCK8), 293T; assay type: cell-based
Experimental: as §1

COC(=O)c1ccc2c(=O)[nH]c(CSc3nc4nc(OC)ccc4[nH]3)nc2c1 [Compound 4d, Methyl 2-(((5-methoxy-1H-imidazo[4,5-b]pyridin-2-yl)thio)methyl)-4-oxo-3,4-dihydroquina-zoline-7-carboxylate]
IC50 [1]: 3340 nM
inhibition at 10 µM (human soluble ENPP1): > 90%
IC50 (human soluble ENPP1): 694 nM

COc1ccc2[nH]c(SCc3nc4cc(F)ccc4c(=O)[nH]3)nc2n1 [Compound 4e, 7-Fluoro-2-(((5-methoxy-1H-imidazo[4,5-b]pyridin-2-yl)thio)methyl)quinazolin-4(3H)-one]
cytotoxic effect (% inhibition) against LO2 (LO2 cell line; 50 μM, CCK8, 48 h): 15.33%
cytotoxic effect on LO2 (in words) (LO2 cell line; highest concentration 50 μM): nonsignificant cytotoxic effect; also recorded: negligible cytotoxic effects
IC50 [1]: < 1000 nM and 732 nM
IC50 (4T1 cell line; Mus musculus, 4T1): 2.99 µM
inhibition at 10 µM (human soluble ENPP1): > 90%
IC50 (human soluble ENPP1): 188 nM and < 1000 nM
IFN-β expression level in serum, cGAMP-compound 4e group compared with free-cGAMP group (IFN-β in serum; 5 mg/kg cGAMP and 0.5 mg/kg compound 4e i.v.): higher
cytotoxic effect (% inhibition) against 293T (293T cell line; 50 μM, CCK8, 48 h): 9.35%
cytotoxic effect on 293T (in words) (293T cell line; highest concentration 50 μM): nonsignificant cytotoxic effect; also recorded: negligible cytotoxic effects

Nc1nc2c(ncn2[C@@H]2O[C@@H]3COP(=O)(O)O[C@H]4[C@@H](O)[C@H](n5cnc6c(N)ncnc65)O[C@@H]4COP(=O)(O)O[C@@H]2[C@@H]3O)c(=O)[nH]1 [cGAMP, 2′,3′-cyclic GMP-AMP, reference compound]
IFN-β in serum, free cGAMP compared with model mice (IFN-β in serum; 5 mg/kg cGAMP i.v.): upregulation

COc1ccc2[nH]c(SCc3nc4c(C)cccc4c(=O)[nH]3)nc2n1 [Compound 4g, 2-(((5-Methoxy-1H-imidazo[4,5-b]pyridin-2-yl)thio)methyl)-8-methylquinazoli-n-4(3H)-one]
inhibition at 10 µM (human soluble ENPP1): 72.7%

COc1ccc2[nH]c(SCc3nc4cc(Cl)ccc4c(=O)[nH]3)nc2n1 [Compound 4f, 7-Chloro-2-(((5-methoxy-1H-imidazo[4,5-b]pyridin-2-yl)thio)methyl)quinazolin-4(3H)-one]
inhibition at 10 µM (human soluble ENPP1): 52.9%

N.N.[Cl][Pt][Cl] [Cisplatin, cisplatin, reference compound]
IC50 (4T1 cell line): 3.2 µM

COc1ccc2[nH]c(SCc3nc4cccc(F)c4c(=O)[nH]3)nc2n1 [Compound 4a, 5-Fluoro-2-(((5-methoxy-1H-imidazo[4,5-b]pyridin-2-yl)thio)methyl)quinazol-in-4(3H)-one]
inhibition at 10 µM (human soluble ENPP1): 72.2%

COc1ccc2[nH]c(SCc3nc4cc(C)ccc4c(=O)[nH]3)nc2n1 [Compound 4c, 2-(((5-Methoxy-1H-imidazo[4,5-b]pyridin-2-yl)thio)methyl)-7-methylquinazoli-n-4(3H)-one]
inhibition at 10 µM (human soluble ENPP1): 75.4%

COc1ccc2[nH]c(SCc3nc4c(Br)cccc4c(=O)[nH]3)nc2n1 [Compound 4h, 8-Bromo-2-(((5-methoxy-1H-imidazo[4,5-b]pyridin-2-yl)thio)methyl)quinazoli-n-4(3H)-one]
inhibition at 10 µM (human soluble ENPP1): 55.5%

COc1ccc2nc(CSc3nc4nc(OC)ccc4[nH]3)[nH]c(=O)c2c1 [Compound 4b, 6-Methoxy-2-(((5-methoxy-1H-imidazo[4,5-b]pyridin-2-yl)thio)methyl)quinaz-olin-4(3H)-one]
inhibition at 10 µM (human soluble ENPP1): 76.5%
